Where “and” joins values, the source holds several entries; their conditions need not be identical. Equal values may be shown once.
Tests used:
plasmin = molecular target: T1, plasmin (Homo sapiens, UniProt P00747); assay: Irreversible inhibition kinetics of plasmin (fluorogenic substrate progress curves); type: biochemical; details: PBS pH 7.4, 37°C, mean ± SD (n=2); for Ki: Boc-Val-Leu-Lys-NHMec 50 μM; for k 3: first-order rate constant; for k 3 / K i: second-order rate constant of inactivation
T1 construct: purchased Sigma-Aldrich (supplement); R&D Systems; host or cells: human plasma
T1 sequence (P00747 581-810 limits assumed): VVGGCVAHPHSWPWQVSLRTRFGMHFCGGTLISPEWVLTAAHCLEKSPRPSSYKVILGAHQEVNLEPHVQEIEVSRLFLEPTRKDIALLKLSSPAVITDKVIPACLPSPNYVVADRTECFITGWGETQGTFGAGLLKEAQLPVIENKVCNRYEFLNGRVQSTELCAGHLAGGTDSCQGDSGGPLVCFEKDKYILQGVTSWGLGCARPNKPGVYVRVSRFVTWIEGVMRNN
T1 sequence (P00747 97-580 partner limits assumed): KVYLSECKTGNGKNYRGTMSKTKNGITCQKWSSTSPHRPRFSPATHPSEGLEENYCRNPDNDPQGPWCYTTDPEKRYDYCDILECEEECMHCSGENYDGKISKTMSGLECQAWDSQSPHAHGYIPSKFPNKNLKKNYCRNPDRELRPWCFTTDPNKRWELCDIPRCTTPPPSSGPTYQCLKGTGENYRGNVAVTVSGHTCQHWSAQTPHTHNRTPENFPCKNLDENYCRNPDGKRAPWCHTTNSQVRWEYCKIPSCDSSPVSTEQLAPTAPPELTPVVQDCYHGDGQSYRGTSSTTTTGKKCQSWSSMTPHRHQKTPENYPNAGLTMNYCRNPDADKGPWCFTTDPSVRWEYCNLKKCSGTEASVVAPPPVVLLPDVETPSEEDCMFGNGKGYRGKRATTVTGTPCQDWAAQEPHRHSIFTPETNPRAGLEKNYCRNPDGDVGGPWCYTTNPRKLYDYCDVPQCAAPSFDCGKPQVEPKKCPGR
Experimental: (§1) A range of inhibitor concentrations were prepared from a 10 mM stock solution of the test compounds (NAP533, NAP559, NAP800, NAP830, NAP849, and NAP962) in N, N-dimethylformamide (DMF). Recombinant protease activities were assayed using the cognate fluorogenic substrates as follows: trypsin (Z-Gly-Gly-Arg-NHMec), thrombin (Boc-Val-Pro-Arg-NHMec), plasmin (Boc-Val-Leu-Lys-NHMec), human neutrophil elastase (MeO-Succinyl-Ala-Ala-Pro-Val-NHMec), and chymotrypsin (Succinyl-Ala-Ala-Pro-Phe-NHMec). Each substrate was used at a final concentration of 50 μM, in the appropriate buffer for each protease. All inhibition assays were performed in microtiter plates maintained at 37°C in a final volume of 100 μL. The reaction was initiated by the addition of each protease (approx. 0.01 μg/well) and the rate of substrate hydrolysis was recorded continuously at 37°C, over a 60 min period, by measuring the rate of increase in fluorescence (at λex 360 nm, λem 480 nm) using a FLUOstar Optima microplate reader (BMG Labtech).
(§2) The resultant inhibition progress curves obtained for each inhibitor were analyzed by the kinetic models developed by [Tian and Tsou (1982)] and [Walker and Elmore (1984)], for irreversible inhibitors, with curve fitting being achieved using GraFit (Erithacus Software), as described previously ([Ferguson et al., 2016]).
(§3) FIGURE 4 Progress curves for (A), chymotrypsin-catalysed hydrolysis of Succinyl-Ala-Ala-Pro-Phe-NHMec, in the presence of varying concentrations of NAP849. (B), NE-catalysed hydrolysis of MeO-succinyl-Ala-Ala-Pro-Val-NHMec, in the presence of varying concentrations of NAP800. (C) Trypsin-catalysed of Z-Gly-Gly-Arg-NHMec, in the presence of NAP830. (D) Plasmin-catalysed hydrolysis of Boc-Val-Leu-Lys-NHMec, in the presence of varying concentrations of NAP962. Assays were carried out in PBS, pH 7.4, at 37°C, in the presence of a range of inhibitor concentrations (0.25–50 μM) and a fixed concentration (50 μM) of the appropriate substrate for each protease.
The “product progress” curves for substrate hydrolysis in the presence of an inhibitor (Figure 4) are indicative of the action of irreversible inhibitors operating through the kinetic scheme illustrated in Figure 6. In this scheme, the formation of the reversible enzyme–inhibitor complex (EI) is zcharacterized by the inhibitor constant K i. This is converted into the covalent/irreversible complex (E-I) characterized by a first-order rate constant k 3. The overall second-order rate constant for the inactivation of E by I is given by the ratio k 3/K i ([Walker and Elmore, 1984]; [Tsou, 1988]).
Fluorogenic enzyme assays were carried out on a FLUOstar OPTIMA spectro-fluorimeter (BMG Labtech) with analysis performed on MARS Data Analysis Software (BMG Labtech). Black 96-well microtitre plates were supplied by Thermo Scientific. Trypsin from porcine pancreas, plasmin from human plasma and chymotrypsin from bovine pancreas were obtained from Sigma-Aldrich. Thrombin and Cathepsin B were supplied by R and D Systems. Human Neutrophil Elastase was supplied by Calbiochem. Fluorogenic substrates Z-Gly-Gly-Arg-NHMec, Succinyl-Ala-Ala-Pro-Phe-NHMec and MeO-Succinyl-Ala-Ala-Pro-Val-NHMec were supplied by Sigma-Aldrich. Boc-Val-Pro-Arg-NHMec was obtained from R and D Systems and Boc-Val-Leu-Lys-NHMec was supplied by PeptaNova. Phosphate Buffered Saline tablets were acquired from Sigma- Aldrich.
Protease inactivation by each of the compounds under study was evaluated using a fluorogenic enzyme assays. Protease-substrate combinations used as detailed in Section 2. Inhibitors were made up as 10 mM stock solutions in either DMF or DMSO, then diluted with PBS (pH 7.4) to give appropriate working concentrations. A final volume of 100 μL was used per well. Substrate (50 μM final concentration) was added to a black 96-well microtitre plate (Thermo Scientific), in duplicate, followed by addition of inhibitor, in such a manner to give the required final concentration. […]

chymotrypsin = molecular target: T2, chymotrypsin (Bos taurus, UniProt P00766); assay: Irreversible inhibition kinetics of chymotrypsin (fluorogenic substrate progress curves); type: biochemical, bovine
T2 construct: purchased Sigma-Aldrich (supplement); Calbiochem; host or cells: bovine pancreas
Experimental: as §1, §2, §3
The “product progress” curves for substrate hydrolysis in the presence of an inhibitor (Figure 4) are indicative of the action of irreversible inhibitors operating through the kinetic scheme illustrated in Figure 6. In this scheme, the formation of the reversible enzyme–inhibitor complex (EI) is zcharacterized by the inhibitor constant K i. This is converted into the covalent/irreversible complex (E-I) characterized by a first-order rate constant k 3. The overall second-order rate constant for the inactivation of E by I is given by the ratio k 3/K i ([Walker and Elmore, 1984]; [Tsou, 1988]). […]
Protease inactivation by each of the compounds under study was evaluated using a fluorogenic enzyme assays. […]

Ki (plasmin) [µM] | k 3 (plasmin) | k 3 / K i (plasmin) | Ki (chymotrypsin; Succinyl-Ala-Ala-Pro-Phe-NHMec 50 μM, PBS pH 7.4, 37°C, mean ± SD (n=3)) [µM] | k 3 (chymotrypsin; first-order rate constant, PBS pH 7.4, 37°C, mean ± SD (n=3)) | second-order rate constant relative to the analogous phenylalanine diphenyl phosphonate QUBCL1 (chymotrypsin; fold greater than QUBCL1) | Structure (SMILES) | k 3 / K i (chymotrypsin; second-order rate constant of inactivation, PBS pH 7.4, 37°C, mean ± SD (n=3))
7.2 | 0.4 (± 0.05) min^−1 | 6.2 (± 0.9) × 10^4 M^−1 min^−1 | – | – | – | NCCCCN(CC(=O)NCC(=O)NCC(=O)NCCCOCCOCCOCCCNC(=O)CCCCC1SCC2NC(=O)NC21)C(=O)ON1C(=O)CCC1=O (stereo not drawn) [NAP830, Succinimidoyl-CO-NLys-Gly-Gly-PEG-Biotin] | –
– | – | – | 0.89 | 0.85 (± 0.29) min^−1 | approximately ten-fold | O=C(CCCCC1SCC2NC(=O)NC21)NCCCOCCOCCOCCCNC(=O)CNC(=O)CNC(=O)CN(Cc1ccccc1)C(=O)ON1C(=O)CCC1=O (stereo not drawn) [NAP849, Succinimidoyl-CO-NPhe-Gly-Gly-PEG-Biotin] | 1.28 × 10^6 M^−1 min^−1 and 1.28 (± 0.44) × 10^6 M^−1 min^−1
4.2 | 0.6 (± 0.1) min^−1 | 1.4 (± 0.3) × 10^5 M^−1 min^−1 | – | – | – | CC(C)N(CC(=O)NCCCOCCOCCOCCCNC(=O)CCCCC1SCC2NC(=O)NC21)C(=O)CN(Cc1ccccc1)C(=O)CN(CCCCN)C(=O)ON1C(=O)CCC1=O (stereo not shown) [NAP962, Succinimidoyl-CO-NLys-NPhe-NVal-PEG-Biotin] | –
